# From PMC12266748, “A Xanthine Derivative With Novel Heat Shock Protein 90‐Alpha Inhibitory and Senolytic Properties” (Aging Cell, 2025)
# Read-outs that look alike come from different tables or passages of the source.
# How the values were obtained:
# HUVEC = test: MTT viability of Doxorubicin-induced senescent and non-senescent HUVEC; assay type: cell-based, Human; details: for EC50: Homo sapiens
# Source text: IMR90 and WI38 lung fibroblasts were purchased from ECACC‐Merck. Human bone marrow (BM)‐derived mesenchymal stromal cells (MSCs) were purchased from Lonza. Human umbilical vein endothelial cells (HUVECs) are primary cells obtained from a pool of donors purchased from Clonetics (Lonza). Murine ear fibroblasts (MearFs) were obtained from C57BL/6J mice maintained in the INRCA “Specific Pathogen Free” (SPF) animal facility. MCF7 breast cancer cells were purchased from ATCC. For dose–response curves, IMR90 and WI38 were induced to senescence through replicative passages; MSCs, HUVECs, and MearFs senescence was induced with Doxorubicin; MCF7 senescence was induced with 4‐Hydroxytamoxifen (Lee et al. [2014]). The EC50 was calculated using GraphPad Prism 10 software. All treatment specifications are reported in the extended section.
# Cell viability was determined using an MTT assay. Absorbance was measured using a NB‐12‐0035 Microplate Reader (NeoBiotech Co.). Data are expressed as a percentage of viability compared with untreated cells.
# Human umbilical vein endothelial cells (HUVECs) are primary cells obtained from a pool of donors purchased from Clonetics (Lonza, Stein, Switzerland). HUVECs were cultured in endothelial basal medium (EBM-2, CC-3156, Lonza) supplemented with SingleQuot Bullet Kit (CC-4176, Lonza) containing 0.1% human recombinant epidermal growth factor (rh-EGF), 0.04% hydrocortisone, 0.1% vascular endothelial growth factor (VEGF), 0.4% human recombinant fibroblast growth factor (rh-FGF-B), 0.1% insulin-like growth factor-1 with the substitution of arginine for glutamic acid at position 3 (R3-IGF-1), 0.1% ascorbic acid, 0.1% heparin, 0.1% gentamicin and amphotericin-B (GA-1000), and 2% fetal bovine serum (FBS). The cells were seeded at a density of 5000/cm^2 in T75 flasks (Corning Costar, Sigma Aldrich, St. Louis, MO, USA).
# Murine ear fibroblasts (MearFs) were obtained from C57BL/6J mice maintained in the INRCA "Specific Pathogen Free" (SPF) animal facility. The ear biopsies (2 mm radius) were obtained with a dedicated puncher, and cells recovered as previously described (Malavolta et al. 2022). Cells were seeded at a density of 5000/cm^2 in T75 flasks (Corning Costar, Sigma Aldrich, St. Louis, MO, USA) and maintained at 37°C in a 95% humidified incubator with 5% CO2. […]
# Cell viability assay. Cell viability has been determined with MTT (3-(4,5-dimethylthiazol-2-yl)-2, 5-diphenyltetrazolium bromide) assay. […] Insoluble formazan salts produced were solubilized with DMSO incubation, and then absorbance was measured at 540 nm using a microplate reader (NB-12-0035 Microplate Reader, NeoBiotech Co., Seoul, Republic of Korea). Data are expressed as a percentage of viability compared with untreated cells (the control group has been considered 100% of viability).
# IMR90 cells = test: Immunofluorescence of Cytochrome C / mitochondria colocalization in senescent IMR90; assay type: cell-based, Homo sapiens; details: senescent IMR90 (PD21), 48 h, K5 25 μM, Dasatinib 1 μM; Vehicle OR = 0.913
# Protocol: Treated/untreated senescent IMR90 and MCF7 cells were fixed, permeabilized, and stained following suppliers' recommendations. Images were acquired using an Olympus IX83 research inverted microscope (IF) and a phase microscopy Nikon ECLIPSE Ei R (IHC) at 40× MAG.
# Immunofluorescence staining. Treated/untreated IMR90 and MCF7 cells were cultured in LabTek II chamber slides (Nunc, Biosigma). At the final time point, cells were stained with 500 nM MitoTracker Orange (Thermo Fisher Scientific) for 30 min at 37°C and then fixed in 4% PFA (Merck) for 10 min, RT, and permeabilized with 0.1% Triton solution (Merck) for 30 min at RT. Samples were blocked in 5% BSA for 90 min, incubated overnight at 4°C with primary antibody against Cytochrome C (1:50, RbMAb, Abcam), and 1h at RT with secondary antibody Alexa Fluor 488 goat anti-Rb (1:200, Thermo Fisher Scientific). Nuclei were stained with DAPI (Cell Signaling) for 10 min at RT, and ProLong Glass Antifade Mountant (Thermo Fisher Scientific) was used to seal coverslips. Images were acquired using an Olympus IX83 research inverted microscope at 40X magnifications.
smiles,measurement,setting,value
"Cc1ccccc1-n1c(=O)n(Cc2ccccc2)c(=O)c2[nH]cnc21 [Compound K5, 1-benzyl-3-(2-methylphenyl)-7H-purine-2,6-dione]","Senolytic evidence (no, partly/yes)",HUVEC; DNA damage (Doxorubicin),No
same,EC50,"HUVEC; DNA damage (Doxorubicin), MTT, read-out: EC50 senescent cells",> 500 µM
same,EC50,"HUVEC; MTT, read-out: EC50 proliferating cells",> 500 µM
same,"difference in vitality, DOXO-induced senescent vs non-senescent proliferating cells",HUVEC; MTT,no discernible difference
same,"Cytochrome C / mitochondria colocalization, Overlap R (OR)",IMR90 cells,0.454
